Here are results for one molecule from patent US20120129809A1, “LUNG CANCER TREATMENT” (priority 2009, published 2012).

One data set deals with human tumor cell lines. Put plainly: antiproliferative activity in human tumor cell lines. It is filed as cell-based. To be noted: broad range of human tumor cell lines, including NSCLC, fibrosarcoma, glioblastoma, erythroleukemia, prostate, colon, ovarian, endometrial and breast cancers.
For data set [1], the system named is human tumor cell line xenografts. Briefly: murine tumor xenograft models utilizing human tumor cell lines. It is filed as in vivo. As to conditions: xenografts representing glioblastoma, prostate, breast, lung, colon and pancreatic cancers. For orientation: In xenograft studies the graft and the host belong to different species.
The test system of data set [2] is NSCLC cell lines (KRAS mutant and KRAS wild-type). Briefly: panel of more than 100 NSCLC cell lines. It is filed as cell-based.
The subject of another data set is H2122. Briefly: KRAS mutant NSCLC xenograft H2122. The data set is classed as in vivo.
The next data set relates to A549. Briefly: KRAS mutant NSCLC xenograft A549. It is filed as in vivo.
In data set [3] the test system is several tumor types, such as sarcomas. Put plainly: clinical development in advanced cancers. It is filed as in vivo.
The next data set can be described thus: side effects in patients. The data set is classed as in vivo. As to conditions: onset as early as first week of treatment.
Data set [4] relates to PTEN-deficient tumor cell lines. As to conditions: PTEN-deficient lines including glioblastoma, prostate, breast, pancreas, lung and colon; cited from earlier work.

`CO[C@H]1C[C@@H]2CC[C@@H](C)[C@@](O)(O2)C(=O)C(=O)N2CCCCC2C(=O)O[C@H]([C@H](C)C[C@@H]2CC[C@H](OP(C)(C)=O)[C@H](OC)C2)CC(=O)[C@H](C)/C=C(\C)[C@@H](O)[C@H](OC)C(=O)[C@H](C)C[C@@H](C)/C=C/C=C/C=C/1C` (stereo in doubt) [Deforolimus]: the antiproliferative activity entry (in the data set on human tumor cell lines; in data set [4]) was “demonstrated antiproliferative activity” throughout. Further, the in vivo activity entry in data set [1] was “demonstrated in vivo activity”. The “activity in KRAS mutant versus KRAS wild-type cells” value in data set [2] was “the same in both KRAS mutant and KRAS wild-type cells”. Also, the anti-tumor activity entry with H2122 is given as “showed anti-tumor activity”; in the data set on A549 it was “showed anti-tumor activity”; in data set [3] it was “evidence of anti-tumor activity”. Moreover, the side effect entry in “side effects in patients” is “mouth sores typically reported as mucositis”. For the same molecule, the “metabolism by CYP3A” value in the data set with CYP3A is recorded as “extensively metabolized by CYP3A”.
